Bounds are passed on as bounds.

This note sets out measurements from patent publication US10040781B2, “Tank-binding kinase inhibitor compounds” (Gilead Sciences, Inc., priority 2014, dated 2018).

Assay [1] deals with hJAK2 (Homo sapiens (Human), UniProt O60674). The experiment in a line: hJAK2 LANCE TR-FRET enzymatic assay. As to conditions: read-out: JAK2 IC50. The format is biochemical. For orientation: TR-FRET usually uses a lanthanide donor and a delayed reading to cut background.
The target of assay [2] is TBK1 (Homo sapiens (Human), UniProt Q9UHD2). The experiment in a line: TBK1 TR-FRET enzymatic assay.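 Note: phosphorylation of a biotinylated Ser/Thr peptide by purified full-length recombinant TBK1, read by TR-FRET after 240 min at 25 °C, IC50 is the geometric mean of at least four runs.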
Chain of TBK1 (Q9UHD2 whole entry): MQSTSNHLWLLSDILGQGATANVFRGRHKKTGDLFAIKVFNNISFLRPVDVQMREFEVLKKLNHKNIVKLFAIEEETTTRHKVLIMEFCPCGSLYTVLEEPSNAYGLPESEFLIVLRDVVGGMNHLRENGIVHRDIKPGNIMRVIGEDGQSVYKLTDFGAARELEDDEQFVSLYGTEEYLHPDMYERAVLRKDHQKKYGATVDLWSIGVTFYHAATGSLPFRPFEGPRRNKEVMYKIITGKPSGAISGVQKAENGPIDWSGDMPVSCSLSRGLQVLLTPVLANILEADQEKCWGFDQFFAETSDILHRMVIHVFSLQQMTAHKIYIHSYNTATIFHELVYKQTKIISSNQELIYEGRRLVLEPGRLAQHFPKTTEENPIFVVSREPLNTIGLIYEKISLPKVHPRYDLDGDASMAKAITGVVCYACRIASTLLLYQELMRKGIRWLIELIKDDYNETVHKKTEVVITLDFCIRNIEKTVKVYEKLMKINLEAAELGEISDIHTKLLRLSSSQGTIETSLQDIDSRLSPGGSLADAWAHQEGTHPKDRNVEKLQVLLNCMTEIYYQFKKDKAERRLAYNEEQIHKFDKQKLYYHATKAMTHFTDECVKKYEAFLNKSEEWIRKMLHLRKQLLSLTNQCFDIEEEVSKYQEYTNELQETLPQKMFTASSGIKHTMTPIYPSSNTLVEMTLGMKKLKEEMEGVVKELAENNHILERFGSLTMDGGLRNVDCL
In assay [3] the target is IKKε (Homo sapiens (Human), UniProt Q14164). The experiment in a line: IKKε TR-FRET enzymatic assay. Particulars: read-out: IKKe IC50. The format is biochemical.
Chain of IKKε (Q14164 whole entry): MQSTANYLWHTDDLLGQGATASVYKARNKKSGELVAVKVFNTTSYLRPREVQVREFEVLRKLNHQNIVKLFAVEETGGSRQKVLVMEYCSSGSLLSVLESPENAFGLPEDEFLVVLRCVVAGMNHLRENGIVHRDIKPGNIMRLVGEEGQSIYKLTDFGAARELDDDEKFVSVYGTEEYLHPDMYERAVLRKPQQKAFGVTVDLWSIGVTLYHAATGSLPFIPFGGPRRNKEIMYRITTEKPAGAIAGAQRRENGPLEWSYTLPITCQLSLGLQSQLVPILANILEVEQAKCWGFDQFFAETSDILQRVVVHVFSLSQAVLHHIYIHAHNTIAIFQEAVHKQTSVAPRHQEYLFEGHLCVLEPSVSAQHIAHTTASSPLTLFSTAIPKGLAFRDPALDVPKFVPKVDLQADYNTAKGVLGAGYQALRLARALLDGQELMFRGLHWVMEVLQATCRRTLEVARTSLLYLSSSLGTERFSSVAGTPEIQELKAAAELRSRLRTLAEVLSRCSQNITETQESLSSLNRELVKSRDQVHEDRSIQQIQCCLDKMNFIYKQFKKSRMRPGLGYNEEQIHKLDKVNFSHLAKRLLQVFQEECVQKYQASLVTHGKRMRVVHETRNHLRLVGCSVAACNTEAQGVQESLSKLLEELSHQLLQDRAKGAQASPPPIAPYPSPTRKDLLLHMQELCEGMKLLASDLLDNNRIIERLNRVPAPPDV

Chain of hJAK2 (O60674 whole entry): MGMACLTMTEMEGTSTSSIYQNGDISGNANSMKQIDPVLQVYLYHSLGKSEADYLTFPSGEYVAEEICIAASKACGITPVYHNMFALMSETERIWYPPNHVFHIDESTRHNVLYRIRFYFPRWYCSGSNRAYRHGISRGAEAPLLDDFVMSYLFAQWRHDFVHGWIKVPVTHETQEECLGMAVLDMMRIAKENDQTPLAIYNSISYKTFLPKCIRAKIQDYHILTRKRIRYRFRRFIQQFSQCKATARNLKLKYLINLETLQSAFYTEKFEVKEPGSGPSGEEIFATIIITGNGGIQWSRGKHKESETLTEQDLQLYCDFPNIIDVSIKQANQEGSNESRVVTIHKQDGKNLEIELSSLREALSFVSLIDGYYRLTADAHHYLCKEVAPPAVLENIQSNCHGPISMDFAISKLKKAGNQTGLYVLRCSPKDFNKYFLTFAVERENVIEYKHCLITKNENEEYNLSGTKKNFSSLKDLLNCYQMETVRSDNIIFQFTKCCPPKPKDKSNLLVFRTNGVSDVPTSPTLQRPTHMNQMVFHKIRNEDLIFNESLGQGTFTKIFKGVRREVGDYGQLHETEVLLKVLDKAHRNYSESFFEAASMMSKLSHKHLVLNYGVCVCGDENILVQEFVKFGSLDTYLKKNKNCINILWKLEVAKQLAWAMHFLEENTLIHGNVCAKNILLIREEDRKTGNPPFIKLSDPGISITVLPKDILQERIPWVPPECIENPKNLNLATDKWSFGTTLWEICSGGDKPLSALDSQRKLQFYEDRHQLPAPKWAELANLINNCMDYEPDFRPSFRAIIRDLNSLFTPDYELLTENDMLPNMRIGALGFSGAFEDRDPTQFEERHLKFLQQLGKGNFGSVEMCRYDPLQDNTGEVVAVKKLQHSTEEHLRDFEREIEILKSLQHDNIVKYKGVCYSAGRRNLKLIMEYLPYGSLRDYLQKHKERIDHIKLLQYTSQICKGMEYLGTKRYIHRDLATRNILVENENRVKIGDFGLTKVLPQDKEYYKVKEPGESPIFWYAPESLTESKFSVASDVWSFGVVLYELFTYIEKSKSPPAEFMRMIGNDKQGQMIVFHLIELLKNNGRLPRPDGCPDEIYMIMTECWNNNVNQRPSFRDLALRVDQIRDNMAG

For the compound `CN1CCC(c2ccc(Nc3ncnc(-c4ccc(O[C@H]5CCOC[C@H]5F)c(C#N)c4)n3)cc2)CC1` [Example 300, 2-(((3R,4S)-3-fluorotetrahydro-2H-pyran-4-yl)oxy)-5-(4-((4-(1-methylpiperidin-4-yl)phenyl)amino)-1,3,5-triazin-2-yl)benzonitrile], the IC50 stood at 453 nM in assay [1], 4 nM in assay [2] and 3 nM in assay [3].

Take `N#Cc1cc(-c2ncnc(Nc3ccc(N4CCN(C5CCOCC5)CC4)c(F)c3)n2)ccc1O[C@H]1CCN(C(=O)CO)C[C@H]1F` [Example 307, 2-(((3R,4S)-3-fluoro-1-(2-hydroxyacetyl)piperidin-4-yl)oxy)-5-(4-((3-fluoro-4-(4-(tetrahydro-2H-pyran-4-yl)piperazin-1-yl)phenyl)amino)-1,3,5-triazin-2-yl)benzonitrile]: the concentration for half-maximal inhibition (IC50) in assay [1] is 268 nM; in assay [2], 3 nM; in assay [3], 1 nM.

As to `C[C@H](O)C(=O)N1CC[C@H](Oc2ccc(-c3ncnc(Nc4ccc(N5CCN(CC6COC6)CC5)cc4)n3)cc2C#N)[C@H](F)C1` [Example 308, 2-(((3R,4S)-3-fluoro-1-((S)-2-hydroxypropanoyl)piperidin-4-yl)oxy)-5-(4-((4-(4-(oxetan-3-ylmethyl)piperazin-1-yl)phenyl)amino)-1,3,5-triazin-2-yl)benzonitrile], the IC50 was 475 nM in assay [1], 2 nM in assay [2] and 1 nM in assay [3].

On to `C[C@H](O)C(=O)N1CC[C@H](Oc2ccc(-c3ncnc(Nc4ccc(N5CCN(C6CCOCC6)CC5)cc4)n3)cc2C#N)[C@H](F)C1` [Example 309, 2-(((3R,4S)-3-fluoro-1-((S)-2-hydroxypropanoyl)piperidin-4-yl)oxy)-5-(4-((4-(4-(tetrahydro-2H-pyran-4-yl)piperazin-1-yl)phenyl)amino)-1,3,5-triazin-2-yl)benzonitrile], for which the IC50 in assay [1] is 423 nM; in assay [2] it was 2 nM; in assay [3], 1 nM.

As for `C[C@H](O)C(=O)N1CC[C@H](Oc2ccc(-c3ncnc(Nc4ccc(C5CCN(C6COC6)CC5)c(F)c4)n3)cc2C#N)[C@H](F)C1` [Example 310, 2-(((3R,4S)-3-fluoro-1-((S)-2-hydroxypropanoyl)piperidin-4-yl)oxy)-5-(4-((3-fluoro-4-(1-(oxetan-3-yl)piperidin-4-yl)phenyl)amino)-1,3,5-triazin-2-yl)benzonitrile], the half-inhibitory concentration (IC50) was not below 1000 nM in assay [1], 4 nM in assay [2] and 2 nM in assay [3].

Regarding `C[C@H](O)C(=O)N1CC[C@H](Oc2ccc(-c3ncnc(Nc4ccc(N5CCN(C6(C)COC6)CC5)cc4)n3)cc2C#N)[C@H](F)C1` [Example 312, 2-(((3R,4S)-3-fluoro-1-((S)-2-hydroxypropanoyl)piperidin-4-yl)oxy)-5-(4-((4-(4-(3-methyloxetan-3-yl)piperazin-1-yl)phenyl)amino)-1,3,5-triazin-2-yl)benzonitrile], the IC50 is 636 nM in assay [1], 3 nM in assay [2] and 3 nM in assay [3].

Consider `C[C@H](O)C(=O)N1CC[C@H](Oc2ccc(-c3ncnc(Nc4ccc(N5CC6(CCOCC6)C5)cc4)n3)cc2C#N)[C@H](F)C1` [Example 313, 5-(4-((4-(7-oxa-2-azaspiro[3.5]nonan-2-yl)phenyl)amino)-1,3,5-triazin-2-yl)-2-(((3R,4S)-3-fluoro-1-((S)-2-hydroxypropanoyl)piperidin-4-yl)oxy)benzonitrile], for which the concentration for half-maximal inhibition (IC50) in assay [1] amounted to 375 nM; in assay [2], 4 nM; in assay [3] it was 2 nM.

Regarding `C[C@H](O)C(=O)N1CC[C@H](Oc2ccc(-c3ncnc(Nc4ccc(N5CCOC(C(N)=O)C5)cc4)n3)cc2C#N)[C@H](F)C1` (stereo partly drawn) [Example 314, 4-(4-((4-(3-cyano-4-(((3R,4S)-3-fluoro-1-((S)-2-hydroxypropanoyl)piperidin-4-yl)oxy)phenyl)-1,3,5-triazin-2-yl)amino)phenyl)morpholine-2-carboxamide], the IC50 came out at 609 nM in assay [1], 3 nM in assay [2] and 1 nM in assay [3].

`C[C@H](O)C(=O)N1CC[C@H](Oc2ccc(-c3ncnc(Nc4ccc(N5CCO[C@@H](C(N)=O)C5)cc4)n3)cc2C#N)[C@H](F)C1` [Example 315, (R)-4-(4-((4-(3-cyano-4-(((3R,4S)-3-fluoro-1-((S)-2-hydroxypropanoyl)piperidin-4-yl)oxy)phenyl)-1,3,5-triazin-2-yl)amino)phenyl)morpholine-2-carboxamide]: the values for the IC50 in assay [1], in assay [2] and in assay [3] were 564 nM, 9 nM and 3 nM, respectively.

`C[C@H](O)C(=O)N1CC[C@H](Oc2ccc(-c3ncnc(Nc4ccc(N5CCO[C@H](C(N)=O)C5)cc4)n3)cc2C#N)[C@H](F)C1` [Example 316, (S)-4-(4-((4-(3-cyano-4-(((3R,4S)-3-fluoro-1-((S)-2-hydroxypropanoyl)piperidin-4-yl)oxy)phenyl)-1,3,5-triazin-2-yl)amino)phenyl)morpholine-2-carboxamide]: the IC50 turned out to be 347 nM in assay [1], 3 nM in assay [2] and 2 nM in assay [3].

Turning to `C[C@H](O)C(=O)N1CC[C@H](Oc2ccc(-c3ncnc(Nc4ccc(N5CC6COCC6C5)cc4)n3)cc2C#N)[C@H](F)C1` (stereo partly drawn) [Example 317, 2-(((3R,4S)-3-fluoro-1-((S)-2-hydroxypropanoyl)piperidin-4-yl)oxy)-5-(4-((4-(tetrahydro-1H-furo[3,4-c]pyrrol-5(3H)-yl)phenyl)amino)-1,3,5-triazin-2-yl)benzonitrile], the figures for the IC50 in assay [1], in assay [2] and in assay [3] were not below 1000 nM, 2 nM and 1 nM, respectively.

As for `N#Cc1cc(-c2ncnc(Nc3ccc(N4CCN(C5COC5)CC4)cc3)n2)ccc1O[C@H]1CCN(C(=O)Cc2cnn[nH]2)C[C@H]1F` [Example 319, 2-(((3R,4S)-1-(2-(1H-1,2,3-triazol-5-yl)acetyl)-3-fluoropiperidin-4-yl)oxy)-5-(4-((4-(4-(oxetan-3-yl)piperazin-1-yl)phenyl)amino)-1,3,5-triazin-2-yl)benzonitrile], the IC50 in assay [1] amounted to 102 nM; in assay [2] it was 4 nM; in assay [3], 7 nM.

`N#Cc1cc(-c2ncnc(Nc3ccc(N4CCN(C5COC5)CC4)cc3)n2)ccc1O[C@H]1CCN(C(=O)Cc2ccn[nH]2)C[C@H]1F` [Example 320, 2-(((3R,4S)-1-(2-(1H-pyrazol-5-yl)acetyl)-3-fluoropiperidin-4-yl)oxy)-5-(4-((4-(4-(oxetan-3-yl)piperazin-1-yl)phenyl)amino)-1,3,5-triazin-2-yl)benzonitrile]: the IC50 was found to be 127 nM in assay [1], 14 nM in assay [2] and 40 nM in assay [3].

`Cc1cc(C(=O)N2CC[C@H](Oc3ccc(-c4ncnc(Nc5ccc(N6CCN(C7COC7)CC6)cc5)n4)cc3C#N)[C@H](F)C2)[nH]n1` [Example 321, 2-(((3R,4S)-3-fluoro-1-(3-methyl-1H-pyrazole-5-carbonyl)piperidin-4-yl)oxy)-5-(4-((4-(4-(oxetan-3-yl)piperazin-1-yl)phenyl)amino)-1,3,5-triazin-2-yl)benzonitrile]: the 50% inhibitory concentration (IC50) in assay [1] was 164 nM; in assay [2], 3 nM; in assay [3], 2 nM.

On to `N#Cc1cc(-c2ncnc(Nc3ccc(N4CCN(C5COC5)CC4)cc3)n2)ccc1O[C@H]1CCN(C(=O)c2[nH]ncc2Cl)C[C@H]1F` [Example 322, 2-(((3R,4S)-1-(4-chloro-1H-pyrazole-5-carbonyl)-3-fluoropiperidin-4-yl)oxy)-5-(4-((4-(4-(oxetan-3-yl)piperazin-1-yl)phenyl)amino)-1,3,5-triazin-2-yl)benzonitrile], for which the half-inhibitory concentration (IC50) in assay [1] stood at 192 nM; in assay [2], 5 nM; in assay [3], 8 nM.

Turning to `N#Cc1cc(-c2ncnc(Nc3ccc(N4CCN(C5COC5)CC4)cc3)n2)ccc1O[C@H]1CCN(C(=O)c2[nH]nc(N)c2Cl)C[C@H]1F` [Example 323, 2-(((3R,4S)-1-(3-amino-4-chloro-1H-pyrazole-5-carbonyl)-3-fluoropiperidin-4-yl)oxy)-5-(4-((4-(4-(oxetan-3-yl)piperazin-1-yl)phenyl)amino)-1,3,5-triazin-2-yl)benzonitrile], the half-inhibitory concentration (IC50) turned out to be 75 nM in assay [1], 3 nM in assay [2] and 3 nM in assay [3].

As to `COc1cc(Nc2ncnc(-c3ccc(O[C@H]4CCN(C(=O)[C@H](C)O)C[C@H]4F)c(C#N)c3)n2)ccc1N1CCC(N2CCOCC2)CC1` [Example 326, 2-(((3R,4S)-3-fluoro-1-((S)-2-hydroxypropanoyl)piperidin-4-yl)oxy)-5-(4-((3-methoxy-4-(4-morpholinopiperidin-1-yl)phenyl)amino)-1,3,5-triazin-2-yl)benzonitrile], the IC50 in assay [1] amounted to 72 nM; in assay [2], 2 nM; in assay [3] it was 1 nM.

For the compound `COc1cc(Nc2ncnc(-c3ccc(O[C@H]4CCN(C(=O)CC#N)C[C@H]4F)c(C#N)c3)n2)ccc1N1CCC(N2CCOCC2)CC1` [Example 327, 2-(((3R,4S)-1-(2-cyanoacetyl)-3-fluoropiperidin-4-yl)oxy)-5-(4-((3-methoxy-4-(4-morpholinopiperidin-1-yl)phenyl)amino)-1,3,5-triazin-2-yl)benzonitrile], the IC50 in assay [1] came to 62 nM; in assay [2] it was 4 nM; in assay [3], 2 nM.

On to `C[C@H](O)C(=O)N1CC[C@H](Oc2c(F)cc(-c3ncnc(Nc4ccc(N5CCN(C6COC6)CC5)cc4)n3)cc2C#N)[C@H](F)C1` [Example 328, 3-fluoro-2-(((3R,4S)-3-fluoro-1-((S)-2-hydroxypropanoyl)piperidin-4-yl)oxy)-5-(4-((4-(4-(oxetan-3-yl)piperazin-1-yl)phenyl)amino)-1,3,5-triazin-2-yl)benzonitrile], for which the results for the IC50 in assay [1], in assay [2] and in assay [3] were not below 1000 nM, 4 nM and 4 nM, respectively.

As usually defined, the IC50 is the point on the concentration scale where inhibition reaches its midpoint.
